The values that follow come from ChEMBL document CHEMBL2034875, “Bifunctionalized amphilectane diterpenes from the sponge Stylissa cf. massa” (J Nat Prod, 2012).

Activity calls are given as the source filed them. The rule behind the calls is not given here.

In series [1] the test system is Plasmodium falciparum. Nature of the series: Antimalarial activity against Plasmodium falciparum K1 infected in human erythrocytes assessed as inhibition of [3H]hypoxanthine incorporation incubated for 24 hrs prior to hypoxanthine addition measured after 18 hrs by liquid scintillation counting. In kind it is functional, organism-based.
Series [2] can be described thus: Cytotoxicity against human MCF7 cells assessed as growth inhibition at 25 ug/mL by SRB assay. The conditions noted are these: read-out: GI. It counts as cell-based.
In series [3] the test system is Plasmodium falciparum. Nature of the series: Antimalarial activity against Plasmodium falciparum K1 infected in human erythrocytes assessed as inhibition of [3H]hypoxanthine incorporation at 10 ug/mL incubated for 24 hrs prior to hypoxanthine addition measured after 18 hrs by liquid scintillation counting. It counts as functional, organism-based.

Turning to `C[C@H]1[C@@H](O)O[C@@H]2O[C@@]3(C)CC[C@H]4[C@H](C)CC[C@@H]1[C@@]24OO3` [ARTENIMOL], in the series on Plasmodium falciparum [1], the IC50 (commonly the concentration at which inhibition is half-maximal) amounted to 0.0038 µM. Turning to `C=C1CC[C@@]2(N=C=S)[C@H]3[C@H](CC[C@@H]2C)[C@@H](C)C[C@@H](CC(C)(C)NC=O)[C@H]13`, in series [2], the inhibition at 25 ug/mL is less than 50%. Further, the IC50 with Plasmodium falciparum [1] was 8.07 µM. Taken in the same sequence, the figures for `C=C1CC[C@@]2(N=C=O)[C@H]3[C@H](CC[C@@H]2C)[C@@H](C)C[C@@H](CC(C)(C)NC=O)[C@H]13` were less than 50% and 8.85 µM. For `C=C(C)C[C@@H]1C[C@H](C)[C@H]2CC[C@](C)(NC=O)[C@H]3CCC(=C)[C@@H]1[C@H]23`, in series [2], the inhibition at 25 ug/mL was less than 50%. In addition, in the series with Plasmodium falciparum [3], the outcome was inactive. Take `[C-]#[N+][C@@]12CCC(=C)[C@H]3[C@H](CC(C)(C)NC=O)C[C@H](C)[C@@H](CC[C@@H]1C)[C@@H]32`: the inhibition at 25 ug/mL in series [2] was less than 50%. Moreover, the IC50 with Plasmodium falciparum [1] was determined as 0.52 µM.
